# Earlier results in patent US7931880B2, “Production of silver sulfate grains using inorganic additives” (Eastman Kodak Company, priority 2007, dated 2011).
# Columns and labels:
# Escherichia coli = conditions: in polymethylmethacrylate bone cement at 0.5% concentration
# Staphylococcus aureus = conditions: in polymethylmethacrylate bone cement at 0.5% concentration
# Pseudomonas aeruginosa = conditions: in polymethylmethacrylate bone cement at 0.5% concentration
Additive Silver Solubility (silver salt of the additive anion),Additive Sulfate Solubility (sulfate salt of the additive cation),Compound,inhibition of bacterial growth (Escherichia coli),inhibition of bacterial growth (Staphylococcus aureus),inhibition of bacterial growth (Pseudomonas aeruginosa)
,,O=S(=O)([O-])[O-].[Ag+].[Ag+] [silver sulfate],significantly inhibit,significantly inhibit,significantly inhibit
0.0070 g/100 mL,7.7 g/100 mL,"[Na+].[Na+].[O]=[W](=[O])([O-])[O-] [Na2WO4, sodium tungstate]",,,
,,[Cl][Ag] [Silver chloride],significantly inhibit,significantly inhibit,significantly inhibit
,,silver oxide,significantly inhibit,significantly inhibit,significantly inhibit
